Test system: dihydrofolate reductase (DHFR)
Conditions: MT 2.2×10^−5 M; 30° C.; absorbance at 340 nm
Description: Reagents and test samples were added to 3 ml disposable cuvettes to the required volume of distilled water in the following order: H2O (0.1-0 ml), 1.5 M Na-acetate buffer (1 ml), 1.8 M KCl (1 ml), 3 mM NADPH (0.15 ml), test solution in PBS (0-0.1 ml), dihydrofolate reductase (DHFR) (ca. 0.01 Uμl) (5 μl). All reagents were purchased from Sigma. The DHFR was introduced, mixed and incubated at 30° C. for 2 min. The reaction was initiated by the addition of dihydrofolic acid (3 mM, 0.15 ml), and the decrease in absorbance with the time at 340 nm was followed.
A control reaction, which contained 0.1 ml of PBS as test solution was included.

Q: `CN(Cc1cnc2nc(N)nc(N)c2n1)c1ccc(C(=O)N[C@@H](CCC(=O)O)C(=O)O)cc1` [MT] was tested. Which “inhibition of DHFR activity” value did it give?
A: completely inhibited

Reference: US6844328B2, “Polysaccharidic esters of N-derivatives of glutamic acid” (Eurand Pharmaceuticals Ltd., priority 2000, dated 2005)
